Experiments:
[1] = molecular target: T1, AR transcriptional activity (Homo sapiens, UniProt P10275, T878A); experiment: eGFP cellular AR transcription assay; assay type: cell-based; settings: for IC50: LNCaP eGFP cell line; for inhibition at 1 µM: read-out: eGFP % inhib. at 1 μM
T1 construct: The LNCaP eGFP cell line was stably transfected with an androgen-responsive probasin-derived promoter fused to an eGFP reporter; endogenous in cells; host or cells: LNCaP eGFP (LN-ARR2PB-eGFP) human prostate cancer cells
T1 sequence (P10275 1-920 T878A): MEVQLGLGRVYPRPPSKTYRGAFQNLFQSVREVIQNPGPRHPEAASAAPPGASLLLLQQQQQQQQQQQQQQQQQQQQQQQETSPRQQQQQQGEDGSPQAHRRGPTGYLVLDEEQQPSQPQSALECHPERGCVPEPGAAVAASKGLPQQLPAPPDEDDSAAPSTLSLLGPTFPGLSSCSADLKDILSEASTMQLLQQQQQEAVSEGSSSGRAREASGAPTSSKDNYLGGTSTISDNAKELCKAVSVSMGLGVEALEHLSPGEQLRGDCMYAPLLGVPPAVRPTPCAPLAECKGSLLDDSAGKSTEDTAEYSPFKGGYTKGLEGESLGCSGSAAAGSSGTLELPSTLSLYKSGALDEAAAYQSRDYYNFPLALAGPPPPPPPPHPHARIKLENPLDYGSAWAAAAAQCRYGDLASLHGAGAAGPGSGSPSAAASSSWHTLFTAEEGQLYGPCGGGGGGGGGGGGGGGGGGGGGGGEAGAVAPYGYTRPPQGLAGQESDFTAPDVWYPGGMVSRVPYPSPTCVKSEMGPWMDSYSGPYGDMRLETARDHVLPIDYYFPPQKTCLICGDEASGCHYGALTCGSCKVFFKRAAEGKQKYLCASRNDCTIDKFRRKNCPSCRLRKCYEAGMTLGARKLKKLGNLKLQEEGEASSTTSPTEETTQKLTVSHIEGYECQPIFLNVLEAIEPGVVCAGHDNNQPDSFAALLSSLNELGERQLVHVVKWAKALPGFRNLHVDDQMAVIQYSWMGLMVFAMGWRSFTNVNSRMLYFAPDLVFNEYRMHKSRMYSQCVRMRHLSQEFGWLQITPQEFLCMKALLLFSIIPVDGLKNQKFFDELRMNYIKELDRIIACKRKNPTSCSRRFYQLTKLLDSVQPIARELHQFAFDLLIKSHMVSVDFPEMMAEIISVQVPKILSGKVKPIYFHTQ
Source text: The DNA-binding domain is an attractive target for inhibition of AR dimerization and/or DNA binding. In silico computational drug discovery methods were used to conduct a virtual screen of >3 million purchasable lead-like compounds from the ZINC database (Irwin, J. et al.^11) to identify potential DBD binders. The in silico methods included large-scale docking, in-site rescoring and consensus voting procedures. It will be understood by a person of skill that COOH and NR2 may include the corresponding ions, for example carboxylate ions and ammonium ions, respectively. Alternatively, where the ions are shown, a person of skill in the art will appreciate that the counter ion may also be present. Furthermore, it will be appreciated by a person of skill that other moieties may include the corresponding ions, and where the ions are shown, a person of skill in the art will appreciate that the counter ion may also be present. […] Where the % inhibition, eGFP IC50 or the PSA IC50 has no value given, this may be because no measurement was taken or the value was not calculated, in the case of the % inhibition. In vitro identification of AR inhibitors targeting AR DBD The selected compounds were assessed with a non-destructive eGFP assay that quantifies levels of AR transcriptional activity, were identified (table below).
(§1) 1. Cell Culture: LNCaP and PC3 human prostate cancer cells were obtained from American Type Culture Collection (ATCC, Manassas, Va.) and grown in RPMI 1640 medium supplemented with 5% fetal bovine serum (FBS) (Invitrogen). The LNCaP eGFP cell line was stably transfected with an androgen-responsive probasin-derived promoter fused to an eGFP reporter (LN-ARR2PB-eGFP) using a lentiviral approach, and were grown in phenol-red-free RPMI 1640 supplemented with 5% CSS. In-house developed MDV3100-resistant LNCaP cells were cultured in RPMI 1640 supplemented with 5% FBS and 10 μM MDV3100. All cells were maintained at 37° C. in 5% CO2.
2. eGFP cellular AR transcription assay: The AR transcriptional activity was assayed as previously described (Tavassoli, P., et al.^12).

[2] = system: PSA levels secreted into the media; experiment: Prostate-specific antigen (PSA) assay; assay type: cell-based; settings: Homo sapiens, 72 h; in parallel to the eGFP assay, same plates, 3 days
Protocol: as §1
3. Prostate-specific antigen (PSA) assay: The evaluation of PSA levels secreted into the media was performed in parallel to the eGFP assay using the same plates. After cells were incubated for 3 days, 150 μl of the media was taken from each well, and added to 150 μl of PBS. PSA levels were then evaluated using Cobas e 411 analyzer instrument (Roche Diagnostics) according to the manufacturer's instructions.

in vitro = settings: for microsomal CLint at 2 μM: pH 7.4
Protocol: Microsomal incubations were carried out in 96-well plates in 5 aliquots of 40 μL each (one for each time point). […] Control incubations were performed replacing the NADPH-cofactor system with PBS. […] Incubations were performed in duplicates. Five time points over 40 minutes had been analyzed. The reactions were stopped by adding 12 volumes of 90% acetonitrile-water to incubation aliquots, followed by protein sedimentation by centrifuging at 5500 rpm for 5 minutes. Supernatants were analyzed using the HPLC system coupled with tandem mass spectrometer. The elimination constant (kel), half-life (t1/2) and intrinsic clearance (Clint) were determined in plot of […] versus time, using linear regression analysis: […]

| SMILES | microsomal CLint at 2 μM (in vitro; human, microsomes) [µL/min/mg] | IC50 [1] [nM] | IC50 [2] [nM] | also measured |
| --- | --- | --- | --- | --- |
| Brc1ncn(-c2csc(N3C[C@H]4CC[C@@H](C3)O4)n2)c1Br [Example 3, (1R,5S)-3-[4-(4,5-dibromoimidazol-1-yl)thiazol-2-yl]-8-oxa-3-azabicyclo[3.2.1]octane] | – | 182 | 1060 | – |
| Clc1ncn(-c2csc(N3[C@@H]4CCC[C@H]3COC4)n2)c1Br [Example 5, (1R,5S)-9-[4-(5-bromo-4-chloro-imidazol-1-yl)thiazol-2-yl]-3-oxa-9-azabicyclo[3.3.1]nonane] | – | 268 | 181 | – |
| Clc1c(Br)ncn1-c1csc(N2[C@@H]3CC[C@H]2COC3)n1 [Example 8, (1R,5S)-8-[4-(4-bromo-5-chloro-imidazol-1-yl)thiazol-2-yl]-3-oxa-8-azabicyclo[3.2.1]octane] | – | 717 | 717 | – |
| Clc1ncn(-c2csc(N3[C@@H]4CC[C@H]3COC4)n2)c1Cl [Example 19, (1R,5S)-8-[4-(4,5-dichloroimidazol-1-yl)thiazol-2-yl]-3-oxa-8-azabicyclo[3.2.1]octane] | 42 | 320 | – | – |
| Brc1cn(-c2csc(N3CCOC4(CCCC4)C3)n2)c(Br)n1 [Example 18, 9-[4-(2,4-dibromoimidazol-1-yl)thiazol-2-yl]-6-oxa-9-azaspiro[4.5]decane] | 100 | 200 | – | "No cofactor" control: role of CYP450 in metabolism (in vitro; NADPH-cofactor system replaced with PBS): not determined just by CYP450 activity; metabolic stability in human hepatic microsomal test system (in words) (in vitro; human hepatic microsomes): low stability |
| Clc1c(Br)ncn1-c1csc(N2[C@@H]3CCC[C@H]2COC3)n1 [Example 9, (1R,5S)-9-[4-(4-bromo-5-chloro-imidazol-1-yl)thiazol-2-yl]-3-oxa-9-azabicyclo[3.3.1]nonane] | – | 746 | 784 | – |
| CC1(C)CN(c2nc(-n3cc(Br)nc3Br)cs2)CCO1 [Example 1, 4-[4-(2,4-dibromoimidazol-1-yl)thiazol-2-yl]-2,2-dimethyl-morpholine] | – | 117 | 95 | – |
| COc1nc(Br)cn1-c1csc(N2[C@@H]3CC[C@H]2COC3)n1 [Example 23, (1S,5R)-8-[4-(4-bromo-2-methoxy-imidazol-1-yl)thiazol-2-yl]-3-oxa-8-azabicyclo[3.2.1]octane] | 22 | 270 | – | – |
| Clc1ncn(-c2csc(N3[C@@H]4CC[C@H]3COC4)n2)c1Br [Example 6, (1R,5S)-8-[4-(5-bromo-4-chloro-imidazol-1-yl)thiazol-2-yl]-3-oxa-8-azabicyclo[3.2.1]octane] | – | 404 | 377 | – |
| OCc1nc(Br)c(Br)n1-c1csc(N2[C@@H]3CC[C@H]2COC3)n1 [Example 36, [4,5-dibromo-1-[2-[(1R,5S)-3-oxa-8-azabicyclo[3.2.1]octan-8-yl]thiazol-4-yl]imidazol-2-yl]methanol] | 10 | 2990 | – | metabolic stability in human hepatic microsomal test system (in words) (in vitro; human, microsomes): high metabolic stability |
| Brc1cn(-c2csc(N3[C@@H]4CCC[C@H]3COC4)n2)c(Br)n1 [Example 2, (1S,5R)-9-[4-(2,4-dibromoimidazol-1-yl)thiazol-2-yl]-3-oxa-9-azabicyclo[3.3.1]nonane] | – | 135 | 74 | – |
| Cc1nc(-c2ccccc2)cn1-c1csc(N2CCOCC2)n1 [Example 60, 4-[4-(2-methyl-4-phenyl-imidazol-1-yl)thiazol-2-yl]morpholine] | 44 | – | – | inhibition at 1 µM [1]: 3% |

Further lines, with some results ahead:

| microsomal CLint at 2 μM (in vitro; human, microsomes) [µL/min/mg] | SMILES | IC50 [1] [nM] | IC50 [2] [nM] | also measured |
| --- | --- | --- | --- | --- |
| 224 | Cc1ncn(-c2csc(N3CCOCC3)n2)c1Br [Example 54, 4-[4-(5-bromo-4-methyl-imidazol-1-yl)thiazol-2-yl]morpholine] | – | – | inhibition at 1 µM [1]: 28% |
| 44 | FC(F)(F)C1CN(c2nc(-n3cc(Br)nc3Br)cs2)CCO1 (stereo not shown) [Example 38, 4-[4-(2,4-dibromoimidazol-1-yl)thiazol-2-yl]-2-(trifluoromethyl)morpholine] | 1950 | – | – |
| 23 | N#Cc1cn(-c2csc(N3CCOCC3)n2)cn1 [Example 58, 1-(2-morpholinothiazol-4-yl)imidazole-4-carbonitrile] | – | – | inhibition at 1 µM [1]: 2% |
| 6 | Clc1ncn(-c2csc(N3C[C@H]4CC[C@@H](C3)O4)n2)c1Br [Example 21, (1R,5S)-3-[4-(5-bromo-4-chloro-imidazol-1-yl)thiazol-2-yl]-8-oxa-3-azabicyclo[3.2.1]octane] | 300 | – | metabolic stability in human hepatic microsomal test system (in words) (in vitro; human, microsomes): high metabolic stability |
| 10 | c1cn(-c2csc(N3CCOCC3)n2)cn1 [Example 55, 4-(4-imidazol-1-ylthiazol-2-yl)morpholine] | – | – | inhibition at 1 µM [1]: 17%; metabolic stability in human hepatic microsomal test system (in words) (in vitro; human, microsomes): high metabolic stability |
| 10 | OCc1nc(Br)c(Br)n1-c1csc(N2CCOCC2)n1 [Example 57, [4,5-dibromo-1-(2-morpholinothiazol-4-yl)imidazol-2-yl]methanol] | 6450 | – | metabolic stability in human hepatic microsomal test system (in words) (in vitro; human, microsomes): high metabolic stability |
| 129 | CCC1(CC)CN(c2nc(-n3cc(Br)nc3Br)cs2)CCO1 [Example 37, 4-[4-(2,4-dibromoimidazol-1-yl)thiazol-2-yl]-2,2-diethyl-morpholine] | – | – | inhibition at 1 µM [1]: 33% |
| 15 | OCc1c(Br)ncn1-c1csc(N2CCOCC2)n1 [Example 61, [5-bromo-3-(2-morpholinothiazol-4-yl)imidazol-4-yl]methanol] | – | – | inhibition at 1 µM [1]: 31%; metabolic stability in human hepatic microsomal test system (in words) (in vitro; human, microsomes): high metabolic stability |
| 52 | CC1CN(c2nc(-n3cc(Br)nc3Br)cs2)CCO1 (stereo not shown) [Example 22, 4-[4-(2,4-dibromoimidazol-1-yl)thiazol-2-yl]-2-methyl-morpholine] | 400 | – | – |
| 13 | Clc1c(Br)ncn1-c1csc(N2C[C@H]3CC[C@@H](C2)O3)n1 [Example 24, (1R,5S)-3-[4-(4-bromo-5-chloro-imidazol-1-yl)thiazol-2-yl]-8-oxa-3-azabicyclo[3.2.1]octane] | 700 | – | metabolic stability in human hepatic microsomal test system (in words) (in vitro; human, microsomes): high metabolic stability |
